Laboratory results from patent publication US8486464B2, “Herbal composition for angina pectoris, method to prepare same and uses thereof” (Tasly Pharmaceutical Group Co. Ltd., priority 2000, dated 2013).
Read-outs that look alike come from different tables or passages of the source.

Assays:
[1] = cited from earlier work
polychromatic RBCs = experiment: Micronucleus rates in mice; assay type: in vivo; details: 80 mg/kg; 24 hrs
[2] = test system: thrombosis, platelet aggregation, coagulation; details: single injection of 20 mg/kg; cited from earlier work
CK, LDH = experiment: Dog blood serum CK and LDH; assay type: in vivo; details: dogs, Dan Shen Pill 2 g/kg
Procedure: (§1) 1.1 Experimental Groups. (1) Blank control group, normal saline 3 ml/kg; (2) DSP group, 2 g natural drug/kg; (3) positive control group, Ditiazem, 5 mg/kg. All the above samples are diluted with normal saline to the same volume of 3 ml/kg and were given to the patient through the duodenum.
(§2) 1.2 Experimental Method. The dogs are anesthetized with pentobarbital sodium. Chests were opened and coronary arterioles and the central part of the dorsal lower branch separated and tied to create an acute myocardial ischemia model. ECGs were recorded and the level of myocardial ischemia (increased section ST, ST) and area of myocardial ischemia (the total increased decimal places in section ST) were calculated. The oxygen content in the coronary artery was recorded. Blood serum creatine kinase (CK), lactate dehydrogenase (LDH), ET, TXB2 and 6-Keto-PGF1 were measured. The oxygen content of the aorta and coronary vein, and blood flow volume in the coronary arteries were measured to calculate myocardial oxygen consumption. Blood oxygen content in the coronary vein was measured to calculate myocardial oxygen content (myocardial oxygen content=(blood oxygen content in arteries-blood oxygen content in coronary veins)×blood flow volume in coronary artery/100).

ET, TXB2, 6-Keto-PGF1α = experiment: Dog plasma ET, TXB2, 6-Keto-PGF1α; assay type: in vivo; details: dogs, Dan Shen Pill 2 g/kg, Diltiazen 5 mg/kg
Procedure: as §1, §2

hemicrania = experiment: Hemicrania, DSP vs Flunarizine; assay type: in vivo, human; details: 8 weeks
Procedure: (2) Effects on hemicrania 58 patients with hemicrania were selected from clinics. They all qualify under International Headache Standards classifications. 10 tablets of DSP (25 mg/tablet) were given to the Treatment group, 3 times/day. 5 mg of Flunarizine was given to the control group, once a day, orally. The medication lasted 8 weeks. Treatment results and side effects were recorded every 2 weeks. No other pain-killing medications were taken within the 6 months.
Treatment standards. Controlled: Headaches disappeared with medication, and there was no reoccurrence after treatment ended; Obvious efficacy: The seriousness of headaches is reduced, duration is shortened, and onset frequency is reduced to 75% or more; Efficacy: The level of headache is reduced, and onset frequency is reduced 50%˜70%; Failure: No improvement in headaches.

[3] = cited from earlier work; remark: listed apart in the source
dizziness = experiment: Dizziness, DSP vs lidocaine; assay type: in vivo, human
Text: 61 patients were divided into two groups at random. 29 patients were in the Treatment group, including 22 patients with insufficient blood supply to the cerebral artery, 7 patients with Meniere Disease, 5 patients with high blood pressure, and 2 patients with coronary heart disease. 32 patients were in the control group, including 22 patients with insufficient blood supply to the cerebral artery, 10 patients with Meniere Disease, 7 patients with high blood pressure, and 4 patients with coronary heart disease. 10 tablets of DSP were given to the Treatment group, 3-5 times/day for 3-7 days. 50 mg of lidocaine was injected into the Control group, once a day for 3-7 days.
Treatment method: (1) Obvious Efficacy: Dizziness and other companion symptoms disappeared, and there was no re-occurrence for 12 hrs after observation. (2) Efficacy: The level of dizziness and other symptoms disappeared. (3) Failure: No improvement.

hemorheology = experiment: Chronic pulmonary heart disease: hemorheologic markers; assay type: in vivo, human
Text: (§3) 90 cases of chronic pulmonary heart disease were selected based on the diagnosis standard set up during the National Pulmonary Heart Disease Congress in 1977. The patients were divided randomly into an Observation group and a Control group. The 60 cases in the Observation group took DSP, while the 30 cases in the Control group took persantin. Based on the objectives of: reduced inflammation, coughing cessation, dissolving of sputum, cardial and diuretic action, and cardiac function improvement, the Observation group was given 10 grains of DSP, 3 times a day. The Control group was given 50 mg of Poon Seng Ding each time, 3 times a day. Treatment lasted 1 month.

[4] = test system: chronic pulmonary heart disease; experiment: Chronic pulmonary heart disease, DSP vs persantin: efficacy; assay type: in vivo, human; details: 1 month
Text: as §3
(1) Obvious Efficacy. The symptoms such as coughing, asthma, pulmonary rales, syanosis were relieved or disappeared. The ascites and lower limbs sdema were disappeared as well. Heartbeat was under 100 times/min and cardiac function was improved above grade I-II. The urine volume per day increased by 600 ml and above, while the body weight decreased by 4%. The end-brush circulations were improved.
(3) Inefficacy. Above all markers were not improved.

[5] = Diltiazen 5 mg/kg, 30 min after dosage
[6] = Diltiazen 5 mg/kg, 60 min after dosage
[7] = Diltiazen 5 mg/kg, 90 min after dosage
[8] = Diltiazen 5 mg/kg, 120 min after dosage
[9] = Diltiazen 5 mg/kg, 180 min after dosage
[10] = Diltiazen 5 mg/kg, after hypoxia before dosage
[11] = Ditiazen 5 mg/kg, 30 min after dosage
[12] = Ditiazen 5 mg/kg, 60 min after dosage
[13] = Ditiazen 5 mg/kg, 90 min after dosage
[14] = Ditiazen 5 mg/kg, 120 min after dosage
[15] = Ditiazen 5 mg/kg, 180 min after dosage
[16] = Ditiazen 5 mg/kg, after hypoxia before dosage
[17] = Insufficient blood supply to the brain

Molecule: 3H-Borneol [Example 3H-Borneol]
- diminishing half-lifetime ([1]; oral administration): 5.3 h
- half-life time ([1]; single intraveneous injection): 2.8 min

Molecule: O=P1(N(CCCl)CCCl)NCCCO1 (stereo not shown) [CP]
- Micro-rates (%) (polychromatic RBCs): 23.0 ± 4.0 %
- Micronucleus Cells (polychromatic RBCs): 138

Molecule: O=C(O)[C@H](O)Cc1ccc(O)c(O)c1 [Danshensu, D(+)-3,4-dihydroxyphenyl lactic acid]
- duration of effect [2]: 1 h
- time of peak effect [2]: 30 min

Molecule: COc1ccc([C@@H]2Sc3ccccc3N(CCN(C)C)C(=O)[C@@H]2OC(C)=O)cc1 [Diltiazen]
- LDH, changing in percentage (before dosage = 100%) (CK, LDH; [5]): 101.14 ± 17.90 %
- blood serum LDH (CK, LDH; [5]): 143.40 ± 28.64 U/L
- LDH, changing in percentage (before dosage = 100%) (CK, LDH; [6]): 92.58 ± 15.17 %
- blood serum LDH (CK, LDH; [6]): 134.40 ± 46.48 U/L
- LDH, changing in percentage (before dosage = 100%) (CK, LDH; [7]): 93.31 ± 19.02 %
- blood serum LDH (CK, LDH; [7]): 153.00 ± 70.80 U/L
- LDH, changing in percentage (before dosage = 100%) (CK, LDH; [8]): 121.32 ± 22.12%
- blood serum LDH (CK, LDH; [8]): 194.60 ± 76.72 U/L
- LDH, changing in percentage (before dosage = 100%) (CK, LDH; [9]): 117.24 ± 26.69 %
- blood serum LDH (CK, LDH; [9]): 164.80 ± 49.36 U/L
- LDH, changing in percentage (CK, LDH; [10]): 101.14 ± 17.90 %
- blood serum LDH (CK, LDH; [10]): 143.40 ± 28.64 U/L
- blood serum LDH (CK, LDH; Diltiazen 5 mg/kg, before hypoxia (normal)): 106.40 ± 19.12 U/L
- 6-Keto-PGF1α/TXB2 (ET, TXB2, 6-Keto-PGF1α; 30 min after dosage): 1.507 ± 0.505
- 6-Keto-PGF1α/TXB2, changing in percentage (before dosage = 100%) (ET, TXB2, 6-Keto-PGF1α; 30 min after dosage): 148.42 ± 17.35 %
- 6-Keto-PGF1α/TXB2 (ET, TXB2, 6-Keto-PGF1α; 60 min after dosage): 1.501 ± 0.358
- 6-Keto-PGF1α/TXB2, changing in percentage (before dosage = 100%) (ET, TXB2, 6-Keto-PGF1α; 60 min after dosage): 155.44 ± 28.97 %
- 6-Keto-PGF1α/TXB2 (ET, TXB2, 6-Keto-PGF1α; 90 min after dosage): 1.980 ± 0.924
- 6-Keto-PGF1α/TXB2, changing in percentage (before dosage = 100%) (ET, TXB2, 6-Keto-PGF1α; 90 min after dosage): 203.82 ± 83.25 %
- 6-Keto-PGF1α/TXB2 (ET, TXB2, 6-Keto-PGF1α; 120 min after dosage): 1.980 ± 0.924
- 6-Keto-PGF1α/TXB2, changing in percentage (before dosage = 100%) (ET, TXB2, 6-Keto-PGF1α; 120 min after dosage): 203.82 ± 83.25 %
- 6-Keto-PGF1α/TXB2 (ET, TXB2, 6-Keto-PGF1α; 180 min after dosage): 1.801 ± 0.596
- 6-Keto-PGF1α/TXB2, changing in percentage (before dosage = 100%) (ET, TXB2, 6-Keto-PGF1α; 180 min after dosage): 198.48 ± 87.02 %
- 6-Keto-PGF1α/TXB2 (ET, TXB2, 6-Keto-PGF1α; after hypoxia before dosage): 143.40 ± 28.64
- 6-Keto-PGF1α/TXB2, changing in percentage (ET, TXB2, 6-Keto-PGF1α; after hypoxia before dosage): 101.14 ± 17.90 %
- 6-Keto-PGF1α/TXB2 (ET, TXB2, 6-Keto-PGF1α; before hypoxia (normal value)): 106.40 ± 19.12

Molecule: COc1ccc([C@@H]2Sc3ccccc3N(CCN(C)C)C(=O)[C@@H]2OC(C)=O)cc1 [Ditiazen]
- CK, changing in percentage (before dosage = 100%) (CK, LDH; [11]): 97.20 ± 12.50 %
- blood serum CK (CK, LDH; [11]): 660.40 ± 184.88 U/L
- CK, changing in percentage (before dosage = 100%) (CK, LDH; [12]): 108.84 ± 20.71 %
- blood serum CK (CK, LDH; [12]): 737.80 ± 159.04 U/L
- CK, changing in percentage (before dosage = 100%) (CK, LDH; [13]): 115.31 ± 19.97 %
- blood serum CK (CK, LDH; [13]): 820.80 ± 289.76 U/L
- CK, changing in percentage (before dosage = 100%) (CK, LDH; [14]): 314.91 ± 23.35 %
- blood serum CK (CK, LDH; [14]): 972.40 ± 347.28 U/L
- CK, changing in percentage (before dosage = 100%) (CK, LDH; [15]): 179.51 ± 10.60 %
- blood serum CK (CK, LDH; [15]): 1238.60 ± 309.12 U/L
- CK, changing in percentage (CK, LDH; [16]): 219.80 ± 38.93 %
- blood serum CK (CK, LDH; [16]): 699.60 ± 211.52 U/L
- blood serum CK (CK, LDH; Ditiazen 5 mg/kg, before hypoxia (normal)): 316.20 ± 63.04 U/L

Molecule: Fc1ccc(C(c2ccc(F)cc2)N2CCN(C/C=C/c3ccccc3)CC2)cc1 [Flunarizine]
- Controlled, number of cases (hemicrania): 5
- Efficacy, number of cases (hemicrania): 7
- Failure, number of cases (hemicrania): 9
- Obvious efficacy, number of cases (hemicrania): 7
- total efficacy (hemicrania): 67.86%

Molecule: Cc1nc(C)c(C)nc1C.O=P(O)(O)O [TMP, tetramethylpyrazine phosphate]
- Cmax ([3]; TMP 5 mg/kg ig with previous borneol 5 mg/kg): 931 ng/mL
- Cmax ([3]; TMP 5 mg/kg ig without borneol): 562 ng/mL

Molecule: CCN(CC)CC(=O)Nc1c(C)cccc1C [lidocaine]
- total efficacy (dizziness; 3-7 days, 29 DSP, 32 lidocaine patients): 87.5%
- Efficacy, cases (dizziness; [17]): 8
- Failure, cases (dizziness; [17]): 2
- Obvious Efficacy, cases (dizziness; [17]): 12
- Total efficacy, % (dizziness; [17]): 91%
- Total efficacy, cases (dizziness; [17]): 20
- Efficacy, cases (dizziness; Meniere disease): 2
- Failure, cases (dizziness; Meniere disease): 2
- Obvious Efficacy, cases (dizziness; Meniere disease): 6
- Total efficacy, % (dizziness; Meniere disease): 80%
- Total efficacy, cases (dizziness; Meniere disease): 8
- Efficacy, cases (dizziness; Total (all dizziness patients)): 10
- Failure, cases (dizziness; Total (all dizziness patients)): 4
- Obvious Efficacy, cases (dizziness; Total (all dizziness patients)): 18
- Total efficacy, % (dizziness; Total (all dizziness patients)): 87.5%
- Total efficacy, cases (dizziness; Total (all dizziness patients)): 28

Molecule: OCCN(CCO)c1nc(N2CCCCC2)c2nc(N(CCO)CCO)nc(N3CCCCC3)c2n1 [persantin]
- Aggregation rate of platelet (hemorheology; After treatment, 1 month): 32.28 ± 20.30%
- Blood viscosity (hemorheology; After treatment, 1 month): 3.66 ± 0.58
- Fibrinogen (hemorheology; After treatment, 1 month): 3.60 ± 0.23 g/L
- Hematocrit (hemorheology; After treatment, 1 month): 0.37 ± 0.05 VOL/%
- Aggregation rate of platelet (hemorheology; before treatment): 4.16 ± 2.32%
- Blood viscosity (hemorheology; before treatment): 4.35 ± 0.81
- Fibrinogen (hemorheology; before treatment): 4.22 ± 0.34 g/L
- Hematocrit (hemorheology; before treatment): 0.48 ± 0.05 VOL/%
- Efficacy, number of cases [4]: 9
- Efficacy, rate [4]: 0.3
- Obvious efficacy, number of cases [4]: 14
- Obvious efficacy, rate [4]: 0.47
- Total efficacy rate [4]: 0.76
- Total efficacy, number of cases [4]: 23
- inefficacy, number of cases [4]: 7
- inefficacy, rate [4]: 0.23
- Total efficacy rate ([4]; 60 DSP, 30 persantin): 76%
